These results are taken from paper PMC12517324, “Hyperagonism of a Vitamin D Receptor Agonist/Histone Deacetylase Inhibitor Hybrid Molecule” (Journal of Medicinal Chemistry, 2025).

In this experiment the target is HDAC2 (Homo sapiens, UniProt Q92769). Put plainly: Inhibition of purified HDAC2, Boc-Lys(Ac)-AMC substrate. The experiment is classed as biochemical. On the set-up: purchased Cayman Chemical. The conditions noted are these: 1 h 37 °C.
Chain of HDAC2 (Q92769 whole entry): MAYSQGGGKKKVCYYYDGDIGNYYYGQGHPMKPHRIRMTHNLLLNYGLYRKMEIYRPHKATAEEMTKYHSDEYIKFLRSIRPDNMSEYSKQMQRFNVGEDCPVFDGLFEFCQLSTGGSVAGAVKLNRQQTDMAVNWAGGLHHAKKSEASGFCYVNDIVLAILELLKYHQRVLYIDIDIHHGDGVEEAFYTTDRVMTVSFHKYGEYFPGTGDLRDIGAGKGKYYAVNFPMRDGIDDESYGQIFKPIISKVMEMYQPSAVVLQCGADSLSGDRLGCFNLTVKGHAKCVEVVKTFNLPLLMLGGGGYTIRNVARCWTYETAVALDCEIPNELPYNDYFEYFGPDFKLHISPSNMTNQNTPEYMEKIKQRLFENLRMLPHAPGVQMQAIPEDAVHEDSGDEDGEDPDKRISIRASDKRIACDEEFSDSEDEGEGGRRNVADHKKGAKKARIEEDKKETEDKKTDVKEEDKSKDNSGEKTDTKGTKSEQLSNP

A word on the IC50: it is the concentration needed to halve the response being measured. A lower IC50 goes with greater potency in that assay. `CCC(CC)(c1ccc(OCCCCCC(=O)NO)cc1)c1ccc(OCC(O)C(C)(C)C)c(C)n1` (stereo not shown) [AM-193] registered a half-maximal inhibitory concentration (IC50) of 4.18 µM. That is a single-digit micromolar value.
